Assay results as given in publication PMC4949444 (Scientific Reports, 2016).

Key:
CB1 receptor = biological target: T1, CB1 receptor (Homo sapiens, UniProt P21554); assay: CB1 receptor binding, [3H]CP55940 competition; settings: data not shown; read-out: predicted Ki, CB1 receptor
T1 construct: purchased Perkin-Elmer Life and Analytical Sciences, Boston, MA; host or cells: HEK293 EBNA cells stably expressing the receptor
Experimental: CB1 and CB2 receptor binding affinities were determined by competition studies using [^3H]CP55940 as radioligand and commercial membrane preparations of HEK293 EBNA cells stably expressing the respective receptor type (Perkin-Elmer Life and Analytical Sciences, Boston, MA), following a procedure previously described.

[1] = test system: mutant huntingtin (mut-Htt) aggregates in striatal STHdh cells; assay: Mutant huntingtin aggregation in transfected STHdh cells; type: cell-based, mouse; settings: STHdh cells transfected with exon 1 mut-htt, 94 polyglutamine repeats
Experimental: (§1) Figure 4 In vitro neuroprotective action of VCE-003.2. (a) HiB5 cells were treated with quinolinic acid (QA; 2,5 mM) in the presence or the absence of VCE-003.2 (50 and 250 nM) and cell viability was determined after 24 h by the MTT assay. (b) QA-induced apoptosis measured by cleaved caspase 3 immunostaining (upper panel) of differentiating HiB5 cells was quantified in the presence or absence of VCE-003.2 (250 nM). Cell counts were referred to total cell nuclei counterstained with DAPI and c-caspase3^+ cell quantification is shown in the lower panel. […]. (d) Aggregation of mut-Htt was assessed by fluorescence microscopy in immortalized striatal STHdh transfected cells with a CFP-tagged expression vector of mutant huntingtin (mut-Htt) and counterstained with fluorescent phalloidin (upper panel). […]. Results are representative of three independent experiments. Values are expressed as means ± S. D. *p < 0.05 and ***p < 0.001 vs. Vehicle; ^#p < 0.05 ^##p < 0.01 vs. QA. […]
(§2) The HiB5 hippocampal progenitor cell line (kindly provided by Prof. Z. Kokaia, Lund Stem Cell Center, Sweden) was grown as described[46] in DMEM supplemented with 2 mM glutamine, 1% penicillin/streptomycin and 10% (v/v) fetal calf serum (FCS; Lonza, Switzerland). […] Cell viability was determined after 24 h using the 3-[4,5-dimethylthiazol-2-yl]-2,5-diphenyltetrazolium bromide (MTT) tesresults int. […]

N2a cells = assay: Reactive oxygen species production in N2a cells (CM-H2DCFDA); type: cell-based; settings: 2 hours
Experimental: Determination of ROS: N2a cells were seeded at 25x 10^3 cells/ml in 96-well plates and incubated with 0.25 ȝM 5-(and-6 )-chloro meth yl-2ƍ,7ƍ-dichlorodihydrofluorescein diacetate acet yl ester (C M-H 2 DCFDA) for 20 minutes at 37°C. Then, the cells were treated with either VCE-003 or VCE-003.2 for 2 hours. Cells exposed to pro-oxidant tert-Butyl h ydroperoxide (TBHP) were used as positive control. H 2 DCFDA oxidation was detected using an Incuc yteTM Live-Cell Imaging S ystem (Hertfordshire, UK).
Supplementary Figure S1. Non-elect rophilic activity for VCE-003.2. (a) Reactive ox ygen species production. N2a cells were stained with CM-H2DCFDA and treated with VCE-003 or VCE-003.2 for 2 hours. Then, reactive ox ygen sp ecies were measured b y In cu c yt e TM Liv e-Cell Im agin g S ystem. Results are ex pressed as m ean of t otal integrated intensity (ROS positive cells) ± S.D. (b) Effect on Nrf2 transcriptional activity.
VCE-003 treatment vers us Vehicle treated cells.

Nrf2 pathway = assay: Nrf2 transcriptional assay (NQO1-ARE-Luc) in N2a cells; type: cell-based; settings: 6 hours
Experimental: Nrf2 transcriptional assay: To study Nrf2 transcriptional activity N2a cells were seeded (105/ml) in 24-well plates and transientl y transfected with the plasmid NQO1-ARE-Luc using Roti©-Fect following the manufacturer’s instructions (Carl Roth, Karlsruhe, German y). After 24 hours, cells were incubated wi th the compounds at the concentrations indicated during 6 hours and the luciferase activit y was determined using an Autolumat LB 953 (EG&G Berthold, Bad Wildbad, Germany). Protein content was determined b y the Bradford method to calculate R LU/Pg of protein and the results were expressed as a fold induction over untreated cells.
Supplementary Figure S1. Non-elect rophilic activity for VCE-003.2. (a) Reactive ox ygen species production.
In cu c yt e TM Liv e-Cell Im agin g S ystem. Results are ex pressed as m ean of t otal integrated intensity (ROS positive cells) ± S.D. (b) Effect on Nrf2 transcriptional activity. N2a cells were transientl y trans fected with the NQO1-ARE-Luc plasmid and incubated with the indicated compound concentrations for 6 hours prior to luciferase activit y determination.
Results are expressed as the fold induction ± S.D. relative to untreated control. All the results are representative of at least three independent experiments. Statistics: **p<0.01 VCE-003 treatment vers us Vehicle treated cells.

STHdh^Q7/Q7 = assay: Serum deprivation survival of STHdh Q7/Q7 striatal neuroblasts (MTT); type: cell-based, mouse; settings: STHdh Q7/Q7, 72 h
Experimental: as §1, §2

T1 sequence (P21554 whole entry): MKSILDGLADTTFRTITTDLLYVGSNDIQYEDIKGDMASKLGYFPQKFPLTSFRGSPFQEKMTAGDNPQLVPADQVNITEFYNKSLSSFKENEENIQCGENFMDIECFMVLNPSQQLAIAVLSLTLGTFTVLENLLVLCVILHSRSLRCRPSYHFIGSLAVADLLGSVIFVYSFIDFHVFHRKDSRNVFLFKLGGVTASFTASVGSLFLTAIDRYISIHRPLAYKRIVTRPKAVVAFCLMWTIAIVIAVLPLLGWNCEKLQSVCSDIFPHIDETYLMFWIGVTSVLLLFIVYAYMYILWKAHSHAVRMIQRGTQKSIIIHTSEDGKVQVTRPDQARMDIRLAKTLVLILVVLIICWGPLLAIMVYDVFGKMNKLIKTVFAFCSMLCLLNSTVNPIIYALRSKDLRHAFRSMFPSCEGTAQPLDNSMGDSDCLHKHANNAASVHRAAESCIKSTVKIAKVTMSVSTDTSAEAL

## CCCCCC1=C(NCC)C(=O)C(C/C=C(\C)CCC=C(C)C)=C(O)C1=O [VCE-003.2]
CB1 receptor
  Ki: > 40 µM
[1]
  cells with mut-Htt aggregates: reduced the number of cells with aggregates
N2a cells
  induction of reactive oxygen species (ROS): none of these bioactivities were induced
Nrf2 pathway
  activation of the Nrf2 pathway: none of these bioactivities were induced
STHdh^Q7/Q7
  neuronal viability after serum deprivation: improved
